Here are results for 21 compounds from patent US12630528B2, “Amino aryl derivative useful as diacylglycerol acyltransferase 2 inhibitor and use thereof” (LG CHEM, LTD., priority 2019, dated 2026).

A value given as a limit tells only on which side of the number the result lay.

The IC50 is the concentration that gives 50% inhibition.

This assay concerns the target T1, human DGAT2 (Homo sapiens, UniProt Q96PD7).
T1 construct: FLAG (DYKDDDDK); made in house; host or cells: Sf-21 insect cells (BacPAK baculovirus system); membrane fraction used
T1 sequence (Q96PD7 1-388): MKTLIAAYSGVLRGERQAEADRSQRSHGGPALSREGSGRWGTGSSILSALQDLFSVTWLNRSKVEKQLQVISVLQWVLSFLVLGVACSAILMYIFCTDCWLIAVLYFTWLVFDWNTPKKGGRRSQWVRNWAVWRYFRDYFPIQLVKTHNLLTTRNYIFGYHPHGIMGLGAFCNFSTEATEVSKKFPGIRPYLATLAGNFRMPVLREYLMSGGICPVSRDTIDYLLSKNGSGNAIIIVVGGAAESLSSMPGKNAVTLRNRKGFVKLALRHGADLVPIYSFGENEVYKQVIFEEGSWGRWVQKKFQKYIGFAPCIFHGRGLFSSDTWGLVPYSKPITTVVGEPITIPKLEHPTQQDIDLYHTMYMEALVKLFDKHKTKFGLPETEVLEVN
Description: DGAT2 enzyme activity inhibition, Phospholipid FlashPlate SPA. The note with it: recombinant human DGAT2 membrane protein from Sf-21 cells; inhibition of [14C]-TG production; 37° C. It is filed as biochemical. In a few lines:
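Sf-21 membranes expressing recombinant human DGAT2 (2 μg) preincubated with compound (3 nM–10 μM, 1% DMSO) and 50 μM 1,2 sn-oleoyl glycerol, 20 min at 37 °C, then 1 μM [14C]oleoyl-CoA for 15 min. [14C]-TG counted by SPA; inhibition as % of untreated.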
For the compound `CCOc1ccccc1O[C@@H]1CCCN(c2cncc(Nc3nc(-c4cc(CC(C)(C)C(=O)O)ccc4F)ccc3F)n2)C1` [Example 107, (R)-3-(3-(6-((6-(3-(2-ethoxyphenoxy)piperidin-1-yl)pyrazin-2-yl)amino)-5-fluoropyridin-2-yl)-4-fluorophenyl)-2,2-dimethylpropanoic Acid], the half-maximal inhibitory concentration (IC50) turned out to be 260 nM. The result for `CCOc1ccccc1O[C@@H]1CCCN(c2cncc(Nc3nc4cc(CCC(=O)O)ccc4o3)n2)C1` [Example 16, (R)-3-(2-((6-(3-(2-ethoxyphenoxy)piperidin-1-yl)pyrazin-2-yl)amino)benzo[d]oxazol-5-yl)propanoic Acid] reads over 10000 nM. The result for `CCOc1ccccc1O[C@@H]1CCCN(c2cncc(Nc3nccc(Oc4ccc(CC(=O)O)cc4)n3)n2)C1` [Example 162, (R)-2-(4-((2-((6-(3-(2-ethoxyphenoxy)piperidin-1-yl)pyrazin-2-yl)amino)pyrimidin-4-yl)oxy)phenyl)acetic Acid] reads 230 nM; that for `CCOc1ccccc1O[C@@H]1CCCN(c2cncc(Nc3ccnc(-c4ccc(OC(C)(C)C(=O)O)cc4)n3)n2)C1` [Example 178, (R)-2-(4-(4-((6-(3-(2-ethoxyphenoxy)piperidin-1-yl)pyrazin-2-yl)amino)pyrimidin-2-yl)phenoxy)-2-methylpropanoic Acid], 490 nM. As for `CCOc1ccccc1O[C@@H]1CCCN(c2cncc(Nc3nccc(N4CCC(CC(=O)O)CC4)n3)n2)C1` [Example 125, (R)-2-(1-(2-((6-(3-(2-ethoxyphenoxy)piperidin-1-yl)pyrazin-2-yl)amino)pyrimidin-4-yl)piperidin-4-yl)acetic Acid], the IC50 stood at 1800 nM. The result for `CCOc1ccccc1O[C@@H]1CCCN(c2cncc(Nc3cc(-c4ccc(C(C)(C)C(=O)O)cc4)ccn3)n2)C1` [Example 43, (R)-2-(4-(2-((6-(3-(2-ethoxyphenoxy)piperidin-1-yl)pyrazin-2-yl)amino)pyridin-4-yl)phenyl)-2-methylpropanoic Acid] reads 3100 nM; that for `CCOc1ccccc1O[C@@H]1CCCN(c2cncc(Nc3ccnc(-c4cccc(OC(C)(C)C(=O)O)c4)n3)n2)C1` [Example 174, (R)-2-(3-(4-((6-(3-(2-ethoxyphenoxy)piperidin-1-yl)pyrazin-2-yl)amino)pyrimidin-2-yl)phenoxy)-2-methylpropanoic Acid], 480 nM; that for `CCOc1ccccc1O[C@@H]1CCCN(c2cncc(Nc3cc(-c4ccccc4)ccn3)n2)C1` [Example 41, (R)-6-(3-(2-ethoxyphenoxy)piperidin-1-yl)-N-(4-phenylpyridin-2-yl)pyrazin-2-amine], 600 nM.

`CCOc1ccccc1O[C@@H]1CCCN(c2nccc(Nc3cccc(-c4ccc(NCC(=O)O)cc4)n3)n2)C1` [Example 75, (R)-(4-(6-((2-(3-(2-ethoxyphenoxy)piperidin-1-yl)pyrimidin-4-yl)amino)pyridin-2-yl)phenyl)glycine]: the half-inhibitory concentration (IC50) came out at 890 nM.

Turning to `CCOc1ccccc1O[C@@H]1CCCN(c2ncc(C(F)(F)F)c(Nc3cccc(-c4cccc(CC(C)(C)C(=O)O)c4)n3)n2)C1` [Example 70, (R)-3-(3-(6-((2-(3-(2-ethoxyphenoxy)piperidin-1-yl)-5-(trifluoromethyl)pyrimidin-4-yl)amino)pyridin-2-yl)phenyl)-2,2-dimethylpropanoic Acid], the 50% inhibitory concentration (IC50) was over 10000 nM. On to `CCOc1ccccc1O[C@@H]1CCCN(c2cncc(Nc3nccc(N4CCC(C(=O)O)C4)n3)n2)C1` (stereo partly drawn) [Example 118, 1-(2-((6-((R)-3-(2-ethoxyphenoxy)piperidin-1-yl)pyrazin-2-yl)amino)pyrimidin-4-yl)pyrrolidine-3-carboxylic Acid], for which the IC50 worked out at 2000 nM.

Take `CCOc1ccccc1O[C@@H]1CCCN(c2cncc(Nc3nccc(N4CCC[C@@H](OC(C)(C)C(=O)O)C4)n3)n2)C1` [Example 133, 2-(((R)-1-(2-((6-((R)-3-(2-ethoxyphenoxy)piperidin-1-yl)pyrazin-2-yl)amino)pyrimidin-4-yl)piperidin-3-yl)oxy)-2-methylpropanoic Acid]: the 50% inhibitory concentration (IC50) was determined as 3600 nM. To `CCOc1cccnc1O[C@@H]1CCCN(c2cncc(Nc3nc(-c4cccc(CC(C)(C)C(=O)O)c4)ccc3F)n2)C1` [Example 101, (R)-3-(3-(6-((6-(3-((3-ethoxypyridin-2-yl)oxy)piperidin-1-yl)pyrazin-2-yl)amino)-5-fluoropyridin-2-yl)phenyl)-2,2-dimethylpropanoic Acid] belongs 190 nM. For `CCOc1cccnc1O[C@@H]1CCCN(c2cncc(Nc3cccc(-c4cccc(CC(C)(C)C(=O)O)c4)n3)n2)C1` [Example 64, (R)-3-(3-(6-((6-(3-((3-ethoxypyridin-2-yl)oxy)piperidin-1-yl)pyrazin-2-yl)amino)pyridin-2-yl)phenyl)-2,2-dimethylpropanoic Acid], the half-inhibitory concentration (IC50) turned out to be 130 nM. To `CCOc1ccccc1O[C@@H]1CCCN(c2cncc(Nc3nccc(-c4cccc(C(C)(C)C(=O)O)c4)n3)n2)C1` [Example 141, (R)-2-(3-(2-((6-(3-(2-ethoxyphenoxy)piperidin-1-yl)pyrazin-2-yl)amino)pyrimidin-4-yl)phenyl)-2-methylpropanoic Acid] belongs 1600 nM; to `CCOc1ccccc1O[C@@H]1CCCN(c2cncc(Nc3nccc(N4CCC[C@@H](C(=O)O)C4)n3)n2)C1` [Example 121, (R)-1-(2-((6-((R)-3-(2-ethoxyphenoxy)piperidin-1-yl)pyrazin-2-yl)amino)pyrimidin-4-yl)piperidine-3-carboxylic Acid], 590 nM.

Regarding `CCOc1ccccc1O[C@@H]1CCCN(c2cncc(Nc3nc4ccc(S(C)(=O)=O)cc4s3)n2)C1` [Example 7, (R)—N-(6-(3-(2-ethoxyphenoxy)piperidin-1-yl)pyrazin-2-yl)-6-(methanesulfonyl)benzo[d]thiazol-2-amine], the IC50 was determined as 8800 nM. To `CCOc1ccccc1O[C@@H]1CCCN(c2cncc(Nc3cccc(Oc4cccc(C(C)(C)C(=O)O)c4)n3)n2)C1` [Example 91, (R)-2-(3-((6-((6-(3-(2-ethoxyphenoxy)piperidin-1-yl)pyrazin-2-yl)amino)pyridin-2-yl)oxy)phenyl)-2-methylpropanoic Acid] belongs 340 nM; to `CCOc1ccccc1O[C@@H]1CCCN(c2cncc(Nc3ncc(C(=O)O)s3)n2)C1` [Example 1, (R)-2-((6-(3-(2-ethoxyphenoxy)piperidin-1-yl)pyrazin-2-yl)amino)thiazole-5-carboxylic Acid], 6200 nM. On to `CCOc1cccnc1O[C@@H]1CCCN(c2cncc(Nc3ccc(F)c(-c4cccc(CC(C)(C)C(=O)O)c4)n3)n2)C1` [Example 103, (R)-3-(3-(6-((6-(3-((3-ethoxypyridin-2-yl)oxy)piperidin-1-yl)pyrazin-2-yl)amino)-3-fluoropyridin-2-yl)phenyl)-2,2-dimethylpropanoic Acid], for which the IC50 came out at 300 nM. `CCOc1ccccc1O[C@@H]1CCCN(c2nc(Nc3cccc(-c4cccc(CC(C)(C)C(=O)O)c4)n3)ncc2C(F)(F)F)C1` [Example 71, (R)-3-(3-(6-((4-(3-(2-ethoxyphenoxy)piperidin-1-yl)-5-(trifluoromethyl)pyrimidin-2-yl)amino)pyridin-2-yl)phenyl)-2,2-dimethylpropanoic Acid]: the concentration for half-maximal inhibition (IC50) was found to be 670 nM.
